The source of these data is paper PMC5104457, “ATP-Competitive MLKL Binders Have No Functional Impact on Necroptosis” (PLoS ONE, 2016).

The subject of data set [1] is RIPK3 phosphorylation of MLKL in 293T cells. Kind of data set: MLKL phosphorylation assay (MSD), RIPK3-dependent phospho Ser358. In kind it is cell-based, human. The note with it: 293T cells with GFP-MLKL and RIPK3-mCherry, 30 min compound, normalized to DMSO. Here is the method: The cDNA clones of human MLKL (RC213152) and human RIPK3 (RC209549) were purchased from Origene. To generate GFP-MLKL and RIPK3-mCherry, coding sequences of the corresponding cDNA sequences were PCR amplified and cloned into Biogen’s mammalian expression vector.
293T cells grown in 10 cm plates were transfected with GFP-MLKL alone or both GFP-MLKL and RIPK3-mCherry plasmids. After 24 hours, cells were harvested and replated into poly D lysine coated 96W plate with 20,000 cells/ml. Four hours later, cells were treated with MLKL compounds for 30 min and incubated at 37°C. Thirty minutes later, the media was removed and cells were lysed in 150μl of Cell lysis buffer (Cell Signaling, MA) containing both protease and phosphatase inhibitors. The lysates were transferred to 96 well MSD plates (Meso Scale Discovery, MD) that were precoated with anti-mouse MLKL antibody H00197259-M02, 3B2, Novus Biologicals, CO), and incubated overnight at 4°C. After washing the plates three times with 1x MSD wash buffer (50mM TRIS-HCl, 150mM NaCl, 0.02% Tween 20, pH7.5), 100 μl of 0.5μg/ml of rabbit-anti-MLKL phospho Ser358 (Abcam AB187091) was added to each well. The plates were incubated for 2 hours at room temperature. After three washes with MSD wash buffer, 100 μ l of 0.5ug/ml of SULFO-tag labeled anti-rabbit IgG was added to each well and incubated for 1 hour at room temperature. After three washes, 1x Read bufferT (Meso Scale Discovery, MD) was added and the electrochemiluminescence (ECL) was measured with a MSD Sector Imager 600.

Data set [2] deals with T1, pseudokinase MLKL-1 (Homo sapiens, UniProt Q8NB16).
T1 construct: sub-cloning residues 191 to 471 of the pseudokinase domain of human MLKL cDNA; His6 (thrombin cleavable) (N); made in house; host or cells: Escherichia coli BL21 (DE3)
T1 sequence (Q8NB16 191-471): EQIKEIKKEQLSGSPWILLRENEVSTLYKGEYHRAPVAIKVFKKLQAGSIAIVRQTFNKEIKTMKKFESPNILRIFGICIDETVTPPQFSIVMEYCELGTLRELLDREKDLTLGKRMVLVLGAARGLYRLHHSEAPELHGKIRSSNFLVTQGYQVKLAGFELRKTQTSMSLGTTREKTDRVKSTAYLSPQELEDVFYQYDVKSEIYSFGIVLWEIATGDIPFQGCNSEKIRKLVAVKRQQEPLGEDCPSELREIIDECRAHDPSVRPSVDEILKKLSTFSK
The experiment in a line: Differential scanning fluorimetry (thermal shift), MLKL pseudokinase domain. In kind it is binding. The following applies: 10 μM compound, 1 μM protein, average of triplicates; read-out: MLKL Pseudo-kinase thermal shift at 10 μM. The text has this:
MLKL-1 was constructed by sub-cloning residues 191 to 471 of the pseudokinase domain of human MLKL cDNA into a pET15b vector with a thrombin cleavable N-terminal six histidine fusion tag (His-MLKL-1). MLKL-2 had the same protein boundaries and fusion tag system as MLKL-1 but the dual mutations E366A and K367A were introduced using site directed mutagenesis and was expressed in the same vector (His-MLKL-2).
(§1) To measure the thermal stabilization of the proteins upon compound binding we employed differential scanning fluorimetry (DSF). The kinase domain of RIPK1 and the N-terminal domain HSP90α were expressed and purified as previously described. The pseudokinase MLKL-1, RIPK1 and Hsp90 were melted at 1μM final concentrations in 25mM HEPES pH 8.0, 250mM NaCl and 2.5mM DTT. Compounds were added to a final concentration of 10 μ M with a final DMSO concentration of 5%. The complexes were incubated on ice for 30 minutes. Protein Thermal Shift dye (Life Technologies) was added to 1X. The fluorescence intensities were measured using a Quantstudio real-time PCR system (Life Technologies) with excitation at 470 nm and emission at 586 nm. The samples, measured in triplicate, were heated from 25 to 85°C with a heating rate of […].
Background: DSF heats the sample and reads unfolding from a dye or from intrinsic fluorescence.

The target of data set [3] is T2, kinase domain of RIPK1 (Homo sapiens, UniProt Q13546).
T2 construct: The kinase domain of RIPK1; made in house
T2 sequence (Q13546 17-289 limits assumed): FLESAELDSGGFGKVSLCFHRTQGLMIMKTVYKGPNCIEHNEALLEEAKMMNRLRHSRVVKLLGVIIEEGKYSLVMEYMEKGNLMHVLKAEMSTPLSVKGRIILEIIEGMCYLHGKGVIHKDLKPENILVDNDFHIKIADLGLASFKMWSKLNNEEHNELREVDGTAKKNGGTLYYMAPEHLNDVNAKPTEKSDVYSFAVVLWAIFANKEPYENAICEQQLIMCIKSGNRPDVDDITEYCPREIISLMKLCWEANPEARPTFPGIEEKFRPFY
The experiment in a line: Differential scanning fluorimetry (thermal shift), RIPK1 kinase domain. The following applies: 10 μM compound, 1 μM protein, average of triplicates. Type of data set: binding. How it is done: as §1

Data set [4] has as its system FADD (-/-) Jurkat cells. Kind of data set: Necroptosis assay: rescue from TNF-α induced cell death. In kind it is cell-based. The note with it: FADD deficient Jurkat cells; for IC50: TNF-α 15 ng/ml overnight, average of duplicates, read-out: Necroptosis cell IC50. Here is the method:
Necroptosis assays were performed at Charles River Laboratories (United Kingdom) and at Biogen. […] On the day of the experiment, cells were counted using Nexcelom Bioscience Cell Meter Vision and pelleted by centrifugation. Cell pellets were resuspended in fresh medium at 500,000 cells per mL and transferred to assay-ready compound plates prepared in 384-well white TC plates (Greiner #781080) at 20μl cells per well. Cells and compound were incubated at room temperature for 30 minutes followed by +/- stimulation with 15ng/ml TNF-α (Cell signalling Technologies #8902LF) overnight at 37°C. In the morning, plates were equilibrated to room temperature for 30 minutes and 25μl of CellTiter-Glow (CellTiter-Glo 2.0 Assay, Promega # G9243) diluted 1:4 in PBS was added to each well and allowed to incubate for 10 minutes at room temperature. Luminescence was read on an Envision plate reader (Perkin Elmer).
TNF-α added to these cells induces necroptosis or cell death. The term “Rescue” refers to the ability of a compound to prevent loss of cell viability in the presence of TNF. Definitions of the presence or absence of compound or TNF stimulation in the wells that were used to calculate degree of rescue or viability is defined in Table 1.
100% percent rescue is defined as the value of the “no TNF” wells minus the value of wells treated with “TNF”.
Percent Rescue is then the ratio of the intensity value of the experimental “well” minus the value of “TNF” treated wells divided by the overall difference between the value of “no TNF” treated wells and the value of “TNF” treated wells.
%rescue=((well - TNF)/(no TNF - TNF))x100

Data set [5] addresses T3, RIPK1 kinase domain (Homo sapiens, UniProt Q13546).
T3 construct: purchased DiscoverX
T3 sequence (Q13546 17-289 limits assumed): T2 sequence (Q13546 17-289 limits assumed)
The experiment in a line: ATP-competitive probe displacement assay, RIPK1. Type of data set: binding. The note with it: for Kd: average of duplicates; for weaker potency to RIPK1 relative to MLKL: RIPK1 KD versus MLKL KD. Here is the method:
(§2) Compound binding constants (KDs) were determined at DiscoverX using their KINOMEscan assay platform. This competition binding assay was previously described in Karaman et al. (2008)[18]. Briefly, full length MLKL was expressed in HEK-293 cells as a fusion with an NFκB DNA binding domain and subsequently tagged with a qPCR detection amplicon via interaction with NFκB. […] Twenty microliters of binding reactions were carried out in 384-well polypropylene plates for 1 hour at room temperature. Beads were subsequently washed and resuspended in elution buffer for 30 minutes at room temperature with shaking. The concentration of MLKL in the eluates was measured by qPCR and compound binding constants were calculated using a standard dose-response curve.
(§3) A similar approach was used to measure binding affinities for RIPK1 and RIPK3 kinase domains.

The target of data set [6] is T4, full length MLKL (Homo sapiens, UniProt Q8NB16).
T4 construct: purchased DiscoverX (KINOMEscan service); host or cells: HEK-293
T4 sequence (Q8NB16 1-471): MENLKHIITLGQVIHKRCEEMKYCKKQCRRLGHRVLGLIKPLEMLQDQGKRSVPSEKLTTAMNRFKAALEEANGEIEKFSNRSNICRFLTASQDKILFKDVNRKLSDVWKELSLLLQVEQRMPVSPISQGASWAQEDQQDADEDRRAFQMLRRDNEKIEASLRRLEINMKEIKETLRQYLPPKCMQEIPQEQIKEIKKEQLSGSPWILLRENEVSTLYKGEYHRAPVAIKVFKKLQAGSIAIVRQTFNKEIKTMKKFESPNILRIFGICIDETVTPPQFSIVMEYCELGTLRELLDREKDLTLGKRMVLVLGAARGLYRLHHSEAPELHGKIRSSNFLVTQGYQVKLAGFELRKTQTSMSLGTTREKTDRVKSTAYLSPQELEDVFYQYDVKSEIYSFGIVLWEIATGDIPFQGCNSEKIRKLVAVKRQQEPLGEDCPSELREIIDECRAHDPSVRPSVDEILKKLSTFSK
The experiment in a line: KINOMEscan ATP-competitive probe displacement (competition binding) assay, MLKL. The following applies: for Kd: average of duplicates. Here is the method: as §2, with “This competition binding assay was previously described in Karaman et al. (2008)[18].” left out
as §3

In data set [7] the target is T5, RIPK3 kinase domain (Homo sapiens, UniProt Q9Y572).
T5 construct: purchased DiscoverX
The experiment in a line: ATP-competitive probe displacement assay, RIPK3. Type of data set: binding. Here is the method: as §2, §3

Data set [8] relates to FADD (-/-) Jurkat cells. The experiment in a line: Viability experiment in the absence of TNF. The note with it: FADD deficient Jurkat cells, no TNF, Fig 3F. In kind it is cell-based. Here is the method: Necroptosis assays were performed at Charles River Laboratories (United Kingdom) and at Biogen. […] On the day of the experiment, cells were counted using Nexcelom Bioscience Cell Meter Vision and pelleted by centrifugation. Cell pellets were resuspended in fresh medium at 500,000 cells per mL and transferred to assay-ready compound plates prepared in 384-well white TC plates (Greiner #781080) at 20μl cells per well. Cells and compound were incubated at room temperature for 30 minutes followed by +/- stimulation with 15ng/ml TNF-α (Cell signalling Technologies #8902LF) overnight at 37°C. In the morning, plates were equilibrated to room temperature for 30 minutes and 25μl of CellTiter-Glow (CellTiter-Glo 2.0 Assay, Promega # G9243) diluted 1:4 in PBS was added to each well and allowed to incubate for 10 minutes at room temperature. Luminescence was read on an Envision plate reader (Perkin Elmer). Percent viability values are calculated from separate dose response experiments identical to the percent rescue experiment except that no TNF is added to the cells. This assay is intended to identify compounds that not only don’t rescue, but are toxic themselves. 100% Viability is defined as the intensity value of the “no TNF” wells, cell treated with neither compound nor TNF. […]

A word on the IC50: it is the concentration at which inhibition is half-maximal. Broadly, the Kd is the concentration at which binding is half-saturated. Read a low Kd as tighter binding. As usually defined, the EC50 is the concentration at which the effect is half-maximal.

Entries after “also recorded” stand apart in the source; their conditions may differ.

T5 sequence (Q9Y572 21-287 limits assumed): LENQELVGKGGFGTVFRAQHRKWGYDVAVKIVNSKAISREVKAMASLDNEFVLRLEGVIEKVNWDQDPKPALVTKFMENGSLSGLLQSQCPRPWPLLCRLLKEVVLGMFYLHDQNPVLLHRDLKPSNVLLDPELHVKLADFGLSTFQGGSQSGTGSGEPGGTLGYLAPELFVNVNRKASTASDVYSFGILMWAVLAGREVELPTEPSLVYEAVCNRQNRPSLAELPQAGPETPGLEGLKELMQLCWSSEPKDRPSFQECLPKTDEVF

Take `C[C@@H](Oc1cc(-c2cnn(C3CCNCC3)c2)cnc1N)c1c(Cl)ccc(F)c1Cl` [Crizontinib, reference compound]: the “effect on RIPK3-dependent phosphorylation of MLKL (phospho Ser358, in words)” value in data set [1] is given as “does not impact its phosphorylation”. In addition, the ΔTm at 10 µM stood at 5.63 °C in data set [2] and 0.75 °C in data set [3]. Besides, in data set [4] (dose-response, Fig 3), the “rescue of cells from necroptosis (in words)” value is recorded as “does not rescue cells from necroptosis”. Moreover, the IC50 in data set [4] (Homo sapiens) is more than 40000 nM.
Consider `CC(C)S(=O)(=O)c1ccc2nccc(Nc3ccc4scnc4c3)c2c1` [GSK872], for which the “effect on RIPK3-dependent phosphorylation of MLKL (phospho Ser358, in words)” value in data set [1] was “completely inhibited; also recorded: inhibits phosphorylation of MLKL”.
Consider `COc1nccnc1NS(=O)(=O)c1ccc(NC(=O)/C=C/c2ccc([N+](=O)[O-])s2)cc1` [NSA, Necrosulfonamide, reference compound], for which the “displacement of the ATP probe from / binding to RIPK1 (in words)” value in data set [5] is on record as “not to displace the ATP probe”. Also, the Kd in data set [5] and in data set [7] (average of duplicates) was more than 30000 nM throughout. Also, the “displacement of the ATP probe from MLKL (in words)” value in data set [6] (data not shown) is “not to displace the ATP probe”. The ΔTm at 10 µM in data set [2] was 0.67 °C; in data set [3], 0.15 °C. Further, the “displacement of the ATP probe from / binding to RIPK3 (in words)” value in data set [7] is “not to displace the ATP probe”. Also, the IC50 in data set [4] (Homo sapiens) amounted to 200 nM.
On to `CN1C(=O)C(Cc2c[nH]c3ccccc23)NC1=S` (stereo not shown) [Nec1s, Necrostatin, reference compound], for which, in data set [8], the “effect on cell viability in the absence of TNF stimulation (in words)” value is given as “does not effect cell viability”. For the same molecule, the response in data set [4] (Homo sapiens, TNF stimulation) was half-maximal at 500 nM (EC50).
`CC(=O)Nc1ccc(N(C)c2ccnc(Nc3cccc(S(N)(=O)=O)c3)n2)cc1` [cpd 2]: the “weaker potency to RIPK1 relative to MLKL” value in data set [5] is “at least 10 fold”. Further, the figures for the Kd in data set [5] and in data set [6] were more than 10000 nM and 780 nM, respectively. For the same molecule, the ΔTm at 10 µM is 2.93 °C in data set [2] and 0 °C in data set [3]. The IC50 in data set [4] (Homo sapiens) was more than 40000 nM.
On to `CN(c1ccc(N)cc1)c1ccnc(Nc2cccc(S(N)(=O)=O)c2)n1` [cpd 3], for which the “weaker potency to RIPK1 relative to MLKL” value in data set [5] is reported as “at least 10 fold”. Besides, the Kd in data set [5] is more than 10000 nM; in data set [6] it was 880 nM. Besides, the ΔTm at 10 µM in data set [2] turned out to be 1.57 °C; in data set [3], 0.31 °C. In addition, the IC50 in data set [4] (Homo sapiens) was more than 40000 nM.
